Data published in ChEMBL document CHEMBL3045323, “Synthesis, anti-inflammatory and anticancer activity evaluation of some mono- and bis-Schiffs bases” (2012).
Starred links: 1 amine or outer side, 2 acyl side, 3 side chain; linkers in the order of their positions; H or OH if unused. Positions of bridges follow the written chain, without caps; N, C: chain ends. Non-standard residues stand in square brackets, D forms with d. Residues, ends and D or L forms follow the SMILES beside them. Chains are numbered I, II in the order given. Actinocin(1to9) = Cc1c2oc3c(C)ccc(C(=O)[*:2])c3nc-2c(C(=O)[*:1])c(N)c1=O; NMeV = CN[C@H](C(=O)O)C(C)C; Sar = CNCC(=O)O

Experiments:
Format in all cases: functional
HepG2 = test: Cytotoxicity against Homo sapiens (human) HepG2 cells assessed as growth inhibition at 1 x 10^-5 M after 48 hr by SRB assay; settings: HepG2, 48 h, read-out: GI
HCT-15 = test: Cytotoxicity against Homo sapiens (human) HCT15 cells assessed as growth inhibition at 1 x 10^-5 M after 48 hr by SRB assay; settings: HCT-15, 48 h, read-out: GI
T47D = test: Cytotoxicity against Homo sapiens (human) T47D cells assessed as growth inhibition at 1 x 10^-5 M after 48 hr by SRB assay; settings: read-out: GI
PA-1 = test: Cytotoxicity against Homo sapiens (human) PA1 cells assessed as growth inhibition at 1 x 10^-5 M after 48 hr by SRB assay; settings: PA-1, 48 h, read-out: GI
NCI-H522 = test: Cytotoxicity against Homo sapiens (human) NCI-H522 cells assessed as growth inhibition at 1 x 10^-5 M after 48 hr by SRB assay; settings: NCI-H522, 48 h, read-out: GI
Rattus norvegicus = test: Anti-inflammatory activity inRattus norvegicus albino (rat) assessed as inhibition of carrageenan-induced paw edema at 50 mg/kg, po administered for 30 min followed by carrageenan challenge measured after 1 to 3 hr relative to control

SMILES | inhibition of growth at 10 µM (HepG2) [%] | inhibition of growth at 10 µM (HCT-15) [%] | inhibition of growth at 10 µM (T47D) [%] | inhibition of growth at 10 µM (PA-1) [%] | inhibition of growth at 10 µM (NCI-H522) [%] | inhibition in vivo at 50 mg/kg (Rattus norvegicus) [%]
COc1cc(/C=N/CC2CCCO2)ccc1O (stereo unspecified) | 1 | 24 | 25 | 13 | 17 | 14
COc1cc(/C=N/CCCn2ccnc2)ccc1O | 11 | 1 | 15 | 16 | 22 | 0
COc1cc(/C=N/CCN2CCNCC2)ccc1O | 30 | 4 | 25 | 39 | 25 | 18
COc1ccc(OC)c(/C=N/CC2CCCO2)c1 (stereo unspecified) | 25 | 0 | 33 | 38 | 15 | 16
COc1ccc(OC)c(/C=N/CCCn2ccnc2)c1 | 24 | 3 | 29 | 25 | 24 | 0
COc1ccc(OC)c(/C=N/CCN2CCNCC2)c1 | 22 | 4 | 28 | 16 | 49 | 21
C(=N\CC1CCCO1)/c1ccco1 (stereo unspecified) | 20 | 4 | 12 | 16 | 15 | 26
C(=N\CCCn1ccnc1)/c1ccco1 | 1 | 1 | 16 | 13 | 29 | 28
C(=N\CCN1CCNCC1)/c1ccco1 | 18 | 5 | 21 | 35 | 19 | 22
COc1cc(/C=N/c2n[nH]c(/N=C/c3ccc(O)c(OC)c3)n2)ccc1O | 14 | 4 | 38 | 40 | 9 | 26
COc1cc(/C=N/CCCN2CCN(CCC/N=C/c3ccc(O)c(OC)c3)CC2)ccc1O | 3 | 5 | 18 | 51 | 1 | 25
COc1ccc(OC)c(/C=N/c2n[nH]c(/N=C/c3cc(OC)ccc3OC)n2)c1 | 10 | 5 | 41 | 53 | 15 | 22
COc1ccc(OC)c(/C=N/CCCN2CCN(CCC/N=C/c3cc(OC)ccc3OC)CC2)c1 | 8 | 7 | 24 | 62 | 13 | 20
C(=N\c1n[nH]c(/N=C/c2ccco2)n1)/c1ccco1 | 25 | 3 | 30 | 48 | 26 | 11
C(=N\CCCN1CCN(CCC/N=C/c2ccco2)CC1)/c1ccco1 | 10 | 6 | 9 | 43 | 5 | 30
C[C@@H]1C[C@@H]([C@H](O)CC2CC(=O)NC(=O)C2)C(=O)[C@@H](C)C1 [CYCLOHEXIMIDE] | 14 | 5 | 30 | 82 | 20 | –
O=P1(N(CCCl)CCCl)NCCCO1 (stereo unspecified) [CYCLOPHOSPHAMIDE ANHYDROUS] | 24 | 7 | 36 | 21 | 7 | –
Cc1c2oc3c(C)ccc(C(=O)N[C@@H]4C(=O)N[C@H](C(C)C)C(=O)N5CCC[C@H]5C(=O)N(C)CC(=O)N(C)[C@@H](C(C)C)C(=O)O[C@@H]4C)c3nc-2c(C(=O)N[C@@H]2C(=O)N[C@H](C(C)C)C(=O)N3CCC[C@H]3C(=O)N(C)CC(=O)N(C)[C@@H](C(C)C)C(=O)O[C@@H]2C)c(N)c1=O [DACTINOMYCIN] (I: T[dV]P[Sar][NMeV] / II: T[dV]P[Sar][NMeV]; ester I:1-I:C, II:1-II:C; linker I:N-II:N via Actinocin(1to9)) | 42 | 49 | 21 | 93 | 59 | –
O=c1[nH]cc(F)c(=O)[nH]1 [FLUOROURACIL] | 33 | 21 | 22 | 27 | 51 | –
CC(C)Cc1ccc(C(C)C(=O)O)cc1 (stereo unspecified) [IBUPROFEN] | – | – | – | – | – | 39
